Assay results reported in PMC6934184, “Selective DNA-PKcs inhibition extends the therapeutic index of localized radiotherapy and chemotherapy” (The Journal of Clinical Investigation, 2019).

Biological target: T1, MYLK (MLCK) (Homo sapiens, UniProt Q15746)
T1 construct: purchased Thermo Fisher Scientific (Life Technologies) SelectScreen
Assay: SelectScreen LanthaScreen
Type: binding
Conditions: read-out: % displacement
Summary of the method: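 Percent values come from Thermo SelectScreen profiling of NU5455, combining activity and binding assays. CSF1R was run in Z'LYTE format at Km app ATP, and CAMK1 in Adapta format with ATP listed at 10.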

T1 sequence (Q15746 whole entry): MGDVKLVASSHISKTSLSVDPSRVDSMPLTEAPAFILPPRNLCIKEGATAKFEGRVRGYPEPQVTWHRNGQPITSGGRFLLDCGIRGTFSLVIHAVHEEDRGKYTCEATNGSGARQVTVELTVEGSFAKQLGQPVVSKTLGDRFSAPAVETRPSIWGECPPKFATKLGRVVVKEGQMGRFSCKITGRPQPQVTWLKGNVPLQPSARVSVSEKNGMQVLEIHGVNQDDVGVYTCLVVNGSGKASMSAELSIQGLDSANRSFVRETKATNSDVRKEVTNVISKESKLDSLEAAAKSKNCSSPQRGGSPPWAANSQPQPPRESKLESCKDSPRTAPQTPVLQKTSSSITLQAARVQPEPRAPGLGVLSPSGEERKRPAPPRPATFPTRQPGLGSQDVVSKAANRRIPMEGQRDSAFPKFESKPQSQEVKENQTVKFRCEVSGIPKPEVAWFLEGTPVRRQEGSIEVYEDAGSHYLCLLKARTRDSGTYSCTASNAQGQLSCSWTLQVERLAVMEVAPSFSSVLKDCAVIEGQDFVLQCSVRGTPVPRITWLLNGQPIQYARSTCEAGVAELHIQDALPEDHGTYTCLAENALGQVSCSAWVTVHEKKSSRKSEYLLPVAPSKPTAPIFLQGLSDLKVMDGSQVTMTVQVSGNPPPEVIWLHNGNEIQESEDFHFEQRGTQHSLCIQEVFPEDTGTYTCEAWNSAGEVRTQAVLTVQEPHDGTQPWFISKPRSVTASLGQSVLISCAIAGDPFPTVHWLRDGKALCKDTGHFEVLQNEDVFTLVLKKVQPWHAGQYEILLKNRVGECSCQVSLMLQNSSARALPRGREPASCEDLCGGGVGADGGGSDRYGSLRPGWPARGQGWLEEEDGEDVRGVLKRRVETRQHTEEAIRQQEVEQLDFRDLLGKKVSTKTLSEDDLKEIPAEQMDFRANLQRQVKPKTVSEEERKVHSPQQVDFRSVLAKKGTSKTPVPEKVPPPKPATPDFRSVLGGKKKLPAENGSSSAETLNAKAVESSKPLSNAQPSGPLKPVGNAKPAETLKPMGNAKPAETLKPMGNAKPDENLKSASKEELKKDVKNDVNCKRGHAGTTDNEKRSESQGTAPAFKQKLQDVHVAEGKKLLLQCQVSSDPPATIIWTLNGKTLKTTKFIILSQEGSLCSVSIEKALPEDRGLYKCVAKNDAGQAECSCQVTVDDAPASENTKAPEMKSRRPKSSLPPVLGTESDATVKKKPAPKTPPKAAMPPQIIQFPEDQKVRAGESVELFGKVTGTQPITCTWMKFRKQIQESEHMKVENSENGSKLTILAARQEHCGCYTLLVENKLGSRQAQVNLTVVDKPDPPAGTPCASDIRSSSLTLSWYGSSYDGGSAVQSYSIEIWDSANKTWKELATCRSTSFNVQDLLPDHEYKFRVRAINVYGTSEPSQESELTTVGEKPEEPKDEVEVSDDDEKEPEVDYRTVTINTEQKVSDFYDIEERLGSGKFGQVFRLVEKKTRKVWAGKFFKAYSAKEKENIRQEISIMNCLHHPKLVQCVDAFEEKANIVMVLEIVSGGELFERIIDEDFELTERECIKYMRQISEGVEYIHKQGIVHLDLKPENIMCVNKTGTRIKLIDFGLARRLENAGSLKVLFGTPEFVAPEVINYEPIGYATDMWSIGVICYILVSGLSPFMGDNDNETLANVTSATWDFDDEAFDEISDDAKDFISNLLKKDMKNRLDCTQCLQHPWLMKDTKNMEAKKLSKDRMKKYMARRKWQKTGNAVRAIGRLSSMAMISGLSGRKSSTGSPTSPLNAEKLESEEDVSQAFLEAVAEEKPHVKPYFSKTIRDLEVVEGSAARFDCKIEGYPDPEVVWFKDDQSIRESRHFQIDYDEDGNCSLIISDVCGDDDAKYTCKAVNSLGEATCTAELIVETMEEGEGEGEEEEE

## CN(C(=O)CN1CCOCC1)c1ccc2sc3c(-c4cccc5c(=O)cc(N6CC7CCC(C6)O7)oc45)cccc3c2c1 [NU5455]
  inhibition at 1 µM: 0.2%
